Measured values published in paper PMC5986797, “Laminin heparin-binding peptides bind to several growth factors and enhance diabetic wound healing” (Nature Communications, 2018).

System: full-thickness back-skin wounds in db/db mice
Experiment: Retention of VEGF-A165 at the wound site
Assay type: in vivo, mouse
Conditions: 3 days after treatment, fibrin matrix with 200 ng/wound VEGF-A165 and 2 µM peptide vs without peptide, ELISA
Procedure: Ten C57BLKS/J-m/Lepr db (db/db) mice (The Jackson laboratory) aged 10–11 weeks were used. Their backs were shaved and four full-thickness punch-biopsy wounds (6 mm in diameter) were created in each mouse. Directly after, fibrin matrices [80 µL in total, fibrinogen (10 mg/mL), 2 U/mL human thrombin, 4 U/mL factor XIII, 5 mM calcium chloride, 2 µM α2PI1–8-LAMA3_3043–3067, and 200 ng of recombinant human VEGF-A165] were polymerized on the wounds. To avoid drying of the matrices, the wounds were covered with non-adhering dressing (Adaptic, Johnson&Johnson), and then with adhesive film dressing (Hydrofilm, Hartmann). After 3 or 6 days, mice were sacrificed. The wounds were punched again, in order to recover the fibrinous matrices. Moreover, the tissue surrounding the wounds (2 mm beyond the wound margin) was removed. The tissue was transferred in 0.9 mL of tissue T-PER Tissue Protein Extraction Reagent (Thermo Scientific) containing 1 mg/mL of collagenase IV (Sigma-Aldrich), and homogenized with a tissue homogenizer. […] Recombinant human VEGF-A165 remaining in the fibrinous matrix and in the tissue surrounding the wound was quantified by ELISA (DuoSet, R&D Systems), using 200 ng of recombinant human VEGF-A165 as 100%. […]

NQEQVSPLRLVFALGTDGKKLRIKSKEKCNDGK [α2PI1–8-LAMA3_3043–3067]
amount of VEGF-A165 remaining in the wounds: significantly enhanced
